Test results as given in ChEMBL document CHEMBL1201862, “PubChem BioAssay data set” (2004).
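Cells were grown in 96-well plates and exposed to each compound for 48 hours at five concentrations; endpoints were interpolated linearly between bracketing concentrations, or set to the highest concentration if not reached. GI50: concentration for 50% inhibition of growth.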 Activity calls are given as the source filed them. No stated cut-off is given here; in the data, active = GI50 up to about 1.1 µM and inactive = higher.

Assays:
Experiment in all cases: NCI anticancer screen, dose series, 48 h
[1] = system: 786-0
[2] = system: COLO 205
[3] = system: DU-145
[4] = system: EKVX
[5] = system: HCT-116
[6] = system: HL-60
[7] = system: KM12
[8] = system: M14
[9] = system: MDA-MB-435
[10] = system: MOLT-4
[11] = system: NCI-H460
[12] = system: NCI/ADR-RES
[13] = system: OVCAR-8
[14] = system: PC-3
[15] = system: SF-268
[16] = system: SF-295
[17] = system: SK-MEL-28
[18] = system: SN12C
[19] = system: SR
[20] = system: UACC-257

Row | Compound | GI50 [1] | GI50 [2] | GI50 [3] | GI50 [4] | GI50 [5] | GI50 [6] | GI50 [7] | GI50 [8] | GI50 [9] | GI50 [10] | GI50 [11] | GI50 [12] | GI50 [13] | GI50 [14] | GI50 [15] | GI50 [16] | GI50 [17] | GI50 [18] | GI50 [19] | GI50 [20]
1 | O=C(Oc1cccc(Cl)c1)c1cc2cc(CCl)ccc2oc1=O | 41.8 µM (inactive) | 20.7 µM (inactive) | 22.8 µM (inactive) | 44.4 µM (inactive) | 61.5 µM (inactive) | 19 µM (inactive) | 28.6 µM (inactive) | 14.6 µM (inactive) | 30.4 µM (inactive) | 34.9 µM (inactive) | 37.8 µM (inactive) | > 100 µM (inactive) | > 100 µM (inactive) | 26.1 µM (inactive) | 80 µM (inactive) | 71.1 µM (inactive) | 40 µM (inactive) | 48.9 µM (inactive) | 63.8 µM (inactive) | 16.3 µM (inactive)
2 | COc1ccc2c(c1)c(=O)c1c(NCCN(C)C)ccc3c(=O)n(CCN(C)C)c(=O)n2c31 | < 0.0125 µM (active) | 0.0293 µM (active) | 0.0883 µM (active) | 0.124 µM (active) | < 0.014 µM (active) | 0.101 µM (active) | 0.0815 µM (active) | 0.159 µM (active) | 0.117 µM (active) | < 0.01 µM (active) | < 0.01 µM (active) | 0.109 µM (active) | 0.0601 µM (active) | 0.0925 µM (active) | 0.114 µM (active) | 0.0853 µM (active) | 0.383 µM (active) | 0.0298 µM (active) | < 0.01 µM (active) | 0.166 µM (active)
3 | COC1=CC(=O)c2c(cc(COP(N)(=O)N(CCBr)CCBr)n2C)C1=O (stereo not given) | < 0.01 µM (active) | 0.0242 µM (active) | < 0.01 µM (active) | 0.0212 µM (active) | < 0.01 µM (active) | 0.0113 µM (active) | 1 µM (active) | < 0.01 µM (active) | 1.16 µM (inactive) | < 0.01 µM (active) | < 0.01 µM (active) | 0.184 µM (active) | < 0.01 µM (active) | 1.11 µM (active) | < 0.01 µM (active) | < 0.01 µM (active) | 1.56 µM (inactive) | < 0.01 µM (active) | < 0.01 µM (active) | 1.2 µM (inactive)
4 | C=C1C[C@]23CC[C@@H]4C(CO)(CO)CC(=O)C[C@]4(C)[C@@H]2C(O)C[C@H]1C3 (stereo not given in full) | > 100 µM (inactive) | > 100 µM (inactive) | > 100 µM (inactive) | > 100 µM (inactive) | > 100 µM (inactive) | > 100 µM (inactive) | > 100 µM (inactive) | > 100 µM (inactive) | > 100 µM (inactive) | > 100 µM (inactive) | > 100 µM (inactive) | > 100 µM (inactive) | > 100 µM (inactive) | > 100 µM (inactive) | > 100 µM (inactive) | > 100 µM (inactive) | > 100 µM (inactive) | > 100 µM (inactive) | > 100 µM (inactive) | > 100 µM (inactive)
5 | C=C(C)C(=O)CC[C@@H](C)[C@H]1[C@@H](OC2OC(CO)C(O)C(O)C2O)C[C@@]2(C)[C@@H]3C[C@H](O)C4C(C)(C)[C@@H](OC5OC(CO)C(O)C(O)C5O)CC[C@@]45C[C@@]35CC[C@]12C (stereo not given in full) | > 100 µM (inactive) | 92 µM (inactive) | > 100 µM (inactive) | > 100 µM (inactive) | > 100 µM (inactive) | 19.7 µM (inactive) | > 100 µM (inactive) | > 100 µM (inactive) | 68.9 µM (inactive) | 62.1 µM (inactive) | 45.8 µM (inactive) | > 100 µM (inactive) | > 100 µM (inactive) | > 100 µM (inactive) | > 100 µM (inactive) | 71.6 µM (inactive) | > 100 µM (inactive) | 68.1 µM (inactive) | 71.1 µM (inactive) | > 100 µM (inactive)
6 | c1ccc(COc2ccc(C[P+](c3ccccc3)(c3ccccc3)c3ccccc3)cc2)cc1 | 0.371 µM (active) | 0.129 µM (active) | 0.304 µM (active) | 0.233 µM (active) | 0.104 µM (active) | 0.0682 µM (active) | 0.191 µM (active) | 0.366 µM (active) | 0.225 µM (active) | 0.285 µM (active) | 0.225 µM (active) | 13.4 µM (inactive) | 0.163 µM (active) | 0.131 µM (active) | 0.261 µM (active) | 0.318 µM (active) | 0.337 µM (active) | 0.305 µM (active) | 0.46 µM (active) | 0.269 µM (active)
7 | CC(=O)Nc1ccc(S(=O)(=O)/N=C2\C=CC(=O)c3ccccc32)cc1 | 9.25 µM (inactive) | 13.3 µM (inactive) | 7.4 µM (inactive) | 6 µM (inactive) | 5.24 µM (inactive) | 0.481 µM (active) | 10.5 µM (inactive) | 4.44 µM (inactive) | 1.84 µM (inactive) | 0.428 µM (active) | 12.1 µM (inactive) | 5.9 µM (inactive) | 2.8 µM (inactive) | 3.28 µM (inactive) | 8.02 µM (inactive) | 7.29 µM (inactive) | 10.5 µM (inactive) | 4.92 µM (inactive) | 2.25 µM (inactive) | 6.22 µM (inactive)
8 | Cc1nc2ccccc2c(=O)n1/N=C(\N=N\c1cc(Cl)ccc1Cl)c1ccccc1 | 74.1 µM (inactive) | 61.1 µM (inactive) | > 100 µM (inactive) | 20.7 µM (inactive) | 17.4 µM (inactive) | 58.5 µM (inactive) | 10.3 µM (inactive) | 54.7 µM (inactive) | 21.3 µM (inactive) | 35 µM (inactive) | 45.8 µM (inactive) | 26.6 µM (inactive) | 65.9 µM (inactive) | 55.3 µM (inactive) | 58.6 µM (inactive) | 44.9 µM (inactive) | 47.2 µM (inactive) | > 54.2 µM (inactive) | 44.8 µM (inactive) | 17.4 µM (inactive)
9 | CC(=O)OC1CCC2(C)C(=CCC3C2CCC2(C)C3CC3OC4(CCC(C)CN4)C(C)C32)C1 (stereo not given) | 74.3 µM (inactive) | > 100 µM (inactive) | > 100 µM (inactive) | > 100 µM (inactive) | > 100 µM (inactive) | > 100 µM (inactive) | > 100 µM (inactive) | > 100 µM (inactive) | > 100 µM (inactive) | > 100 µM (inactive) | > 100 µM (inactive) | > 100 µM (inactive) | > 100 µM (inactive) | > 100 µM (inactive) | > 100 µM (inactive) | > 100 µM (inactive) | > 100 µM (inactive) | > 100 µM (inactive) | 80.2 µM (inactive) | > 100 µM (inactive)
10 | O=C(O)/C(Cc1c[nH]nn1)=N\O | > 100 µM (inactive) | > 100 µM (inactive) | > 100 µM (inactive) | > 100 µM (inactive) | > 100 µM (inactive) | > 100 µM (inactive) | > 100 µM (inactive) | > 100 µM (inactive) | > 100 µM (inactive) | > 100 µM (inactive) | > 100 µM (inactive) | > 100 µM (inactive) | > 100 µM (inactive) | > 100 µM (inactive) | > 100 µM (inactive) | > 100 µM (inactive) | > 100 µM (inactive) | > 100 µM (inactive) | > 100 µM (inactive) | > 100 µM (inactive)
11 | O=NN(CCCl)C(=O)NCCCl [CARMUSTINE] | 42.3 µM (inactive) | 72.3 µM (inactive) | 169 µM (inactive) | 120 µM (inactive) | 73.6 µM (inactive) | 16.7 µM (inactive) | 88.9 µM (inactive) | 78.7 µM (inactive) | 75.5 µM (inactive) | 33.5 µM (inactive) | 52.5 µM (inactive) | 94.6 µM (inactive) | 77.8 µM (inactive) | 97.7 µM (inactive) | 38.6 µM (inactive) | 44.5 µM (inactive) | 81.5 µM (inactive) | 75.9 µM (inactive) | 14 µM (inactive) | 75.5 µM (inactive)
12 | COC(=O)C1CC23C=CCN4CC(C2C)C2(c5ccccc5NC12)C43 (stereo not given) | > 100 µM (inactive) | > 100 µM (inactive) | > 100 µM (inactive) | > 100 µM (inactive) | > 100 µM (inactive) | 64 µM (inactive) | > 100 µM (inactive) | > 100 µM (inactive) | > 100 µM (inactive) | > 100 µM (inactive) | > 100 µM (inactive) | > 100 µM (inactive) | > 100 µM (inactive) | > 100 µM (inactive) | > 100 µM (inactive) | > 100 µM (inactive) | > 100 µM (inactive) | > 100 µM (inactive) | > 100 µM (inactive) | > 100 µM (inactive)
13 | CC(C(=O)OCc1ccccc1)(c1ccco1)N1C(=O)OC(c2ccccc2)C1c1ccccc1 (stereo not given) | > 100 µM (inactive) | > 100 µM (inactive) | > 100 µM (inactive) | 99.3 µM (inactive) | > 100 µM (inactive) | 3.81 µM (inactive) | > 25.8 µM (inactive) | > 100 µM (inactive) | > 100 µM (inactive) | 5.05 µM (inactive) | 26.1 µM (inactive) | > 100 µM (inactive) | > 100 µM (inactive) | 6.01 µM (inactive) | > 100 µM (inactive) | > 100 µM (inactive) | > 100 µM (inactive) | > 100 µM (inactive) | > 34.8 µM (inactive) | > 100 µM (inactive)
14 | Nc1nc2ncc(SCc3ccc(C(=O)NC(CCC(=O)O)C(=O)O)cc3)cc2c(=O)[nH]1 (stereo not given) | > 100 µM (inactive) | > 100 µM (inactive) | > 100 µM (inactive) | > 100 µM (inactive) | > 100 µM (inactive) | > 100 µM (inactive) | > 100 µM (inactive) | > 100 µM (inactive) | > 100 µM (inactive) | > 100 µM (inactive) | > 100 µM (inactive) | > 100 µM (inactive) | > 100 µM (inactive) | > 100 µM (inactive) | > 100 µM (inactive) | > 100 µM (inactive) | > 100 µM (inactive) | > 100 µM (inactive) | > 100 µM (inactive) | > 100 µM (inactive)
